Laboratory results published in article PMC12648010 (Acta Pharmaceutica Sinica. B, 2025).

Biological target: T1, SLC38A9 (Homo sapiens, UniProt Q8NBW4)
T1 sequence (Q8NBW4 1-561): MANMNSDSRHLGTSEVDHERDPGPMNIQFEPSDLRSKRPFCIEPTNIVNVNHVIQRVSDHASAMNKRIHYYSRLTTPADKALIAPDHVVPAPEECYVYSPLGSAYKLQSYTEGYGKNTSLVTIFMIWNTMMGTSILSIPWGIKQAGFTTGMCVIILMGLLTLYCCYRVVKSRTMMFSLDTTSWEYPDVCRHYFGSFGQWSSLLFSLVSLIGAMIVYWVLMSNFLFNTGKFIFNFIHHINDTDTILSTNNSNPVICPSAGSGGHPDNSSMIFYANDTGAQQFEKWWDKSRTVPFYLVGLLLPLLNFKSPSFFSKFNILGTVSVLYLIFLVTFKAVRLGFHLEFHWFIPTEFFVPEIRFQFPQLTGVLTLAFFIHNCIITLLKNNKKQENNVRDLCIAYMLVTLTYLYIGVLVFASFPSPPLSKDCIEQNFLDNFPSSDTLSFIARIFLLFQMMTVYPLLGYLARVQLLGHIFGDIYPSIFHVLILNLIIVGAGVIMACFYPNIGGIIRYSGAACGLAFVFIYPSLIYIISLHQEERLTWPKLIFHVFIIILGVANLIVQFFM
Assay: SPR
Format: binding

Kd: 1290 nM
Structure (SMILES): C=CC(=O)Nc1cccc2[nH]nc(-c3nc4ccc(N5CCN(C)CC5)cc4[nH]3)c12 [LLAD, N-(3-(6-(4-Methylpiperazin-1-yl) -1H-benzo[d]imidazole-2-yl)-1H-indazol-4-yl) acrylamide]
